Measurements from paper PMC11438102, “Modulation of cannabinoid receptor 2 alters neuroinflammation and reduces formation of alpha-synuclein aggregates in a rat model of nigral synucleinopathy” (Journal of Neuroinflammation, 2024).

Test system: RAW264.7 macrophages
Assay: Phagocytosis assay with pHrodo green E. coli bioparticles
Assay type: cell-based
Conditions: additional incubation, regardless of LPS dose
Method: The RAW264.7 macrophage cells (ATCC Cat# TIB-71, RRID: CVCL_0493) were grown in sterile media which consisted of DMEM high glucose, 10% FBS, 2mM L-glutamine, 1x Pen-strep and 1x sodium pyruvate in a humidified 5% CO2 incubator at 37°C. RAW264.7 were maintained in […] tissue culture flasks and plated at a density of 1 × 10^4 cells in triplicate in 96-well plates for assays. Cells were stimulated with either lipopolysaccharide (LPS O111:B4; Sigma Cat#L2630) at 100ng/mL or 1000ng/mL (750EU/mL or 7500 EU/mL, respectively). One hour prior to this stimulation the cells were pre-treated with the CB2 inverse agonist SMM-189 at 3μM or 7 μm or its vehicle. Specifically for cell culture experiments, SMM-189 was formulated with 40% ethanol (v/v), 20% tween-20 (v/v) and 40% saline (v/v). A phagocytosis assay was conducted 24 h after LPS.
The phagocytosis assay was performed using pHrodo green E. coli bioparticles (Invitrogen Cat# P35366) according to the manufacturer’s instructions. Five images per well were then collected every 30 min for 24 h on an EVOS M7000 microscope (Invitrogen, ThermoFisher Scientific). The cells were maintained for this duration using an on-stage incubator kept at 37°C and 5% CO2. Analysis of the collected images was performed using EVOS Celleste software (version 5.0), which counted the cells and then measured the integrated optical density of fluorescence within each well over the 24-hour time course. Analysis was conducted on the average integrated optical density across triplicate wells. Results were consistent across duplicate experimental replicates.

Structure (SMILES): C=C1[C@@H](C)[C@H]2[C@H](Cc3ccccc3)NC(=O)[C@]23[C@H](OC(C)=O)/C=C/[C@@](C)(O)C(=O)[C@@H](C)C/C=C/[C@H]3[C@@H]1O [cytochalasin D, reference compound]
- GFP expression (phagocytosis control): significantly restricted
